Results from publication PMC5794259, “Novel ATP-cone-driven allosteric regulation of ribonucleotide reductase via the radical-generating subunit” (eLife, 2018).
Where “and” joins values, the source holds several entries; their conditions need not be identical. Equal values may be shown once.

Columns and labels:
[1] = target: L. blandensis RNR, a-site (NrdB-linked ATP-cone) (Leeuwenhoekiella blandensis, UniProt A3XHF9); test: Enzyme activity assay with wild type NrdB (overall activity regulation, a-site); format: biochemical; conditions: for interaction with the a-site (effect on GDP reduction): 2 mM nucleotide, s-site saturating dTTP (2 mM), 4 µM NrdA and 1 µM NrdB
Protocol: (§1) Enzyme assays were performed at room temperature in 50 mM Tris-HCl at pH 8 in volumes of 50 μl. Reaction conditions, giving maximal activity were determined experimentally. […] Mixtures of 0.5 μM NrdA and 2 μM wild type NrdB or NrdB∆99 (for determination of s-site KL) (Figure 3a–b) or 0.5 μM of NrdB and 2 uM NrdA (for determination of a-site KL), (Figure 3c–f) were used. Some components were explicitly varied in specific experiments. Generally, 0.8 mM CDP was used as substrate. […] When dTTP was used as an s-site effector, 0.5 mM or 0.8 mM GDP was used as substrate. In four substrate assays, the four substrates CDP, ADP, GDP and UDP were simultaneously present in the mixture at concentrations of 0.5 mM each. The substrate mixture was added last to start the reactions. Certain assays were performed in the presence of Mn(CH3COO)2 or FeNH4(SO4): 20 μM of the indicated metal was added to 10 μM NrdB or NrdB∆99 protein, incubated for 10 min, mixed with NrdA and added to the reaction mixture.
(§2) Enzyme reactions were incubated for 10–30 min and then stopped by the addition of methanol. The chosen incubation time gave a maximum substrate turnover of 30%. […] Compound identification was achieved by comparison with injected standards. Relative quantification was obtained by peak height measurements in the chromatogram (UV absorbance at 271 nm) in relation to standards. Specific activities of either NrdA (Figure 2a–b) or NrdB (Figure 2c–f) were determined. Specific activities varied between protein preparations. In some cases the data was standardized to activity percent, where 100% was determined as maximum enzyme activity in a specific condition.
(§3) From a direct plot of activity versus concentration of effector, the KL values for binding of effectors to the s-site and the a-site, were calculated in SigmaPlot using the equation: V=Vmax×[dNTP]/(KL+[dNTP]) and Ki for non-competitive dATP inhibition at NrdB was calculated in Sigmaplot using the equation: V=Vmax/(1+[dNTP]/Ki)

[2] = tested on: L. blandensis class I RNR; test: Four-substrate activity assay, allosteric specificity regulation; format: biochemical, Leeuwenhoekiella blandensis; conditions: all four substrates 0.5 mM each, effector 2 mM, 1 µM NrdB and 4 µM NrdA
Protocol: as §1, §2

[3] = target: T1, s-site in NrdA (Leeuwenhoekiella blandensis, UniProt A3XHF8); test: Enzyme activity assay, CDP reduction, effector titration with NrdB∆99 (s-site); format: biochemical; conditions: 0.5 µM NrdA and 2 µM NrdB∆99, read-out: KL (s-site), concentration of allosteric effector that gives half maximal enzyme activity
T1 sequence (A3XHF8 1-600): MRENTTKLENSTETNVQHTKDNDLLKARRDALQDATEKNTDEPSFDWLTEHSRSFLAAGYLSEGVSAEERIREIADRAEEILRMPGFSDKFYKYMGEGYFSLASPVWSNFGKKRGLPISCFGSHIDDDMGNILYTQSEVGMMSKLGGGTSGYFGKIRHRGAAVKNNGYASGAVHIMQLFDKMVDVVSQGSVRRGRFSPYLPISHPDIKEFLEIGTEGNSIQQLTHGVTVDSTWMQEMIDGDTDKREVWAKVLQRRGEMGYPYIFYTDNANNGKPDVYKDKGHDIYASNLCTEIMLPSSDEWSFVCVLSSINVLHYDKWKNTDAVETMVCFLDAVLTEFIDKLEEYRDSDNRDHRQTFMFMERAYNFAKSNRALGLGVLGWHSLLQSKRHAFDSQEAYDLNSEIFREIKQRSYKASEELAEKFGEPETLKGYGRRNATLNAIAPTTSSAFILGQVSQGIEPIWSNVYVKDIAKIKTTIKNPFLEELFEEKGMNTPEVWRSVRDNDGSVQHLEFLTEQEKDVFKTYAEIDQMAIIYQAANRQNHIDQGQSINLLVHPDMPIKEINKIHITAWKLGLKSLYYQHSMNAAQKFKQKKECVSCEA
T1 sequence (A3XHF9 100-427 partner): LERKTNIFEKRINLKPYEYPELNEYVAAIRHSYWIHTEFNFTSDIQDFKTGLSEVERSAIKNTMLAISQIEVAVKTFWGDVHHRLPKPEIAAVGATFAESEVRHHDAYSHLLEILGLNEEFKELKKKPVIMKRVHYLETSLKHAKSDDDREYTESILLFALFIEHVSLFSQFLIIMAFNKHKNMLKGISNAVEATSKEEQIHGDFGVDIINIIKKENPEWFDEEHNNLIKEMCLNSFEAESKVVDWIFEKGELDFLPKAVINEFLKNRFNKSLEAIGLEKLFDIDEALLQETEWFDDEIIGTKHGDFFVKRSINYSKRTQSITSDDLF
Protocol: (§4) Enzyme assays were performed at room temperature in 50 mM Tris-HCl at pH 8 in volumes of 50 μl. Reaction conditions, giving maximal activity were determined experimentally. […] Mixtures of 0.5 μM NrdA and 2 μM wild type NrdB or NrdB∆99 (for determination of s-site KL) (Figure 3a–b) or 0.5 μM of NrdB and 2 uM NrdA (for determination of a-site KL), (Figure 3c–f) were used. Some components were explicitly varied in specific experiments. Generally, 0.8 mM CDP was used as substrate. […] When dTTP was used as an s-site effector, 0.5 mM or 0.8 mM GDP was used as substrate. […]
Enzyme reactions were incubated for 10–30 min and then stopped by the addition of methanol. […] Relative quantification was obtained by peak height measurements in the chromatogram (UV absorbance at 271 nm) in relation to standards. Specific activities of either NrdA (Figure 2a–b) or NrdB (Figure 2c–f) were determined. […] In some cases the data was standardized to activity percent, where 100% was determined as maximum enzyme activity in a specific condition.
as §3

[4] = target: NrdB (Leeuwenhoekiella blandensis, UniProt A3XHF9); test: Isothermal titration calorimetry (ITC), nucleotide binding to NrdB
Protocol: Isothermal titration calorimetry (ITC) experiments were carried out on a MicroCal PEAQ-ITC system (Malvern Instruments Ltd) in a buffer containing 25 mM HEPES (pH 7.65), 150 mM NaCl, and 10% glycerol, 2 mM tris(2-carboxyethyl)phosphine, and 5 mM MgCl2. Measurements were done at 10°C. The initial injection volume was 0.4 μl over a duration of 0.8 s. All subsequent injection volumes were 2–2.5 μl over 4–5 s with a spacing of 150 s between the injections. Data for the initial injection were not considered. For dATP binding analysis, the concentration of NrdB in the cell was 12 µM and dATP in syringe 120 or 140 µM. Reverse titrations were performed with 113 µM NrdB in the syringe and 12 or 30 µM dATP in the cell. For titration of dATP into NrdB∆99, protein concentration in the cell and dATP concentration in the syringe were 50 µM and 900 µM respectively. […] For titration of ATP into NrdB, cell and syringe concentrations were 50 and 1600 µM respectively. The data were analyzed using the built-in one set of sites model of the MicroCal PEAQ-ITC Analysis Software (Malvern Instruments Ltd). A fixed ligand/protein stoichiometry of 2 was used for dATP to NrdB titrations. Standard deviations in thermodynamic parameters, N and Kd were estimated from the fits of three different titrations.

[5] = tested on: L. blandensis RNR (wild-type NrdB or NrdB∆99); test: Metal-dependency of enzyme activity; format: biochemical, Leeuwenhoekiella blandensis; conditions: metal added to cultures or 20 µM divalent metal ions to 10 µM NrdB
Protocol: Overnight cultures of E. coli BL21(DE3)/pET28a(+) bearing pET-nrdA, pET-nrdB and pET-nrdB∆99 were diluted to an absorbance at 600 nm of 0.1 in LB (Luria-Bertani) liquid medium, containing kanamycin (50 μg/ml) and shaken vigorously at 37°C. At an absorbance at 600 nm of 0.8, isopropyl-β-D-thiogalactopyranoside (Sigma) was added to a final concentration of 0.01 mM for NrdA expression and 0.5 mM for NrdB and NrdB∆99 expression. For particular experiments, 0.5 mM MnSO4 or 0.5 mM FeNH4(SO4)2 or the combination of both metals (0.4 mM and 0.25 mM respectively) were added to NrdB∆99 cultures. The cells were grown overnight at 14°C for NrdA expression and 20°C for NrdB and NrdB∆99 expression and harvested by centrifugation.
as §4

L. blandensis RNR, a-site (NrdB-linked ATP-cone), sequence (A3XHF9 entry or part of it, one chain of several): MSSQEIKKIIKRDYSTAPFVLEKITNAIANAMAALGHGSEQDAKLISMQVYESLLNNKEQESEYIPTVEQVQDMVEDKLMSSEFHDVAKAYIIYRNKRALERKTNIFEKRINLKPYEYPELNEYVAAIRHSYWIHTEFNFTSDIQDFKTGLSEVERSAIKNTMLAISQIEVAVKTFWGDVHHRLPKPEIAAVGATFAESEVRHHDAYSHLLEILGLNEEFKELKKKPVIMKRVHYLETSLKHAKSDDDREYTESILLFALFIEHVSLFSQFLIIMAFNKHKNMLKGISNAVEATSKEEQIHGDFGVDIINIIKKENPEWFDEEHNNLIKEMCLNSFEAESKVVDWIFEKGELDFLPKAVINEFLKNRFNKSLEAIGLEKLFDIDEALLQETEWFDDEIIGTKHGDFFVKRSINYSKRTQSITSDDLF
NrdB, sequence (A3XHF9 entry or part of it): as the sequence (A3XHF9 entry or part of it, one chain of several) above

## Nc1ncnc2c1ncn2[C@@H]1O[C@H](COP(=O)(O)OP(=O)(O)O)[C@@H](O)[C@H]1O [ADP]
[1]
  interaction with the a-site (effect on GDP reduction): no effect

## Nc1ncnc2c1ncn2[C@@H]1O[C@H](COP(=O)(O)O)[C@@H](O)[C@H]1O [AMP]
[1]
  interaction with the a-site (effect on GDP reduction): no effect

## Nc1ncnc2c1ncn2[C@@H]1O[C@H](COP(=O)(O)OP(=O)(O)OP(=O)(O)O)[C@@H](O)[C@H]1O [ATP]
[2]
  effect of s-site effector on substrate reduction: stimulated the reduction of CDP and UDP
[1]
  EC50: 96 µM
[1]; CDP reduction, 0.5 µM NrdA and 2 µM wild type NrdB
  effect on enzyme activity: clearly activated the enzyme
[3]
  EC50: 30 µM
[4]; 10°C
  -TΔS: 4.78 ± 0.96 kcal/mol
  ΔG: -5.74 kcal/mol
[4]; 10°C, one-set-of-sites model
  Kd: 38 ± 2 µM
[4]; 10°C, per NrdB monomer, for dATP kept constant N = 2, 59% active protein
  N (binding stoichiometry): 2.2 and 2.2 ± 0.4
[4]; from Kd, ITC
  lower affinity compared to dATP: 38 fold

## O=S(=O)([O-])[O-].O=S(=O)([O-])[O-].[Fe+2].[NH4+].[NH4+] [Fe^2+, FeNH4(SO4)]
[5]
  effect of metal on catalytic activity: inhibition

## CC(=O)[O-].CC(=O)[O-].[Mn+2] [Mn, Mn(CH3COO)2]
[5]
  effect of metal on catalytic activity: increase in catalytic activity
